The source of these data is patent publication US20240308976A1, “COMPOUNDS THAT MEDIATE PROTEIN DEGRADATION AND USES THEREOF” (Monte Rosa Therapeutics, Inc., priority 2021, published 2024).

Each structure is given as a SMILES string. pIC50: −log10 of the molar value.

The target of one experiment is T1, GSPT1 (Homo sapiens, UniProt P15170+Q96SW2).
T1 construct: CAL-51 cells were purchased from DSMZ (cat. Number ACC302); host or cells: CAL-51
Briefly: Immunofluorescence assay for activity to degrade GSPT1 in CAL-51 cells. It counts as cell-based. To be noted: 6 h treatment, read-out: IF Class (GSPT1 degradation, DC50). As for the experimental part:
Example 147: Compound Activity by Immunofluorescence Assay
The representative compounds were tested in an immunofluorescence assay for their activity to degrade GSPT1. CAL-51 cells were purchased from DSMZ (cat. Number ACC302), sub-cultured in 90% Dulbecco's MEM (4.5 g/L glucose, Gibco 11965)+10% heat inactivated FBS (BioConcept, 2-01F136I) and incubated at 37° C., 5% CO2. For the assay imaging microtiter plate Cell Carrier 96 Ultra (Perkin Elmer 6055302) were pre-coated with Fibronectin (Sigma F085, 30 μL at 0.2 μg/mL) in PBS (100 μL, Gibco 14190) for 45 min at room temperature, rinsed with PBS and CAL-51 cells (30K cells/well) were plated and let to adhere overnight. Cells were treated with compounds typically using a serial dilution ranging from 30 μM to 0.1 nM for 6 h. Compounds were stored at 10 mM DMSO stocks. Vehicle (DMSO), positive (CC-885, 10 μM) and rescue controls (positive control plus 0.2 μM bortezomib) were also included at this stage. Cells were subsequently rinsed with PBS and fixed in 10% Formalin solution (50 μL, Sigma HT5011)) for 20 mins at room temperature. Following three consecutive PBS washes (100 μL), cells were permeabilized in 0.1% Triton X-100 in PBS (Sigma 93443, 50 μL) for 15 min. at room temperature. Following three further PBS washes, 50 μL blocking buffer (1% BSA, Sigma A4503, in PBS) was added for 45 min for signal-to noise reduction. Primary antibody (human GSPT1, Sigma HPA052488) was diluted in blocking buffer (dil.1/300, 35 μL/well) and incubated with the cells overnight at 4° C. After three PBS washes, Alexa-fluor 488 coupled secondary antibodies (Invitrogen, A32731, dil. 1/1000), Alexa-fluor 647-Phalloidin (Invitrogen, A22287, dil. 1/200) and DAPI (Thermo, #62248, dil. 1/1000) were diluted in blocking buffer and incubated with the samples for 2 h at room temperature. After three final PBS washes, samples were conserved in 100 μL PBS in the dark, until measurement. Image acquisition was performed on the Operetta High-Content Imager (Perkin-Elmer). Fluorescence intensity of […] (GSPT1), Alexa-Fluor 647 (Actin) and DAPI (Nucleus) were measured. For the determination of GSPT1 DC50 values, a custom algorithm implemented in the PerkinElmer image analysis software Harmony-Acapella® was developed. After user-defined setting of adjustment parameters, the analysis was run identically without human intervention for all image fields. DAPI staining of the nuclei was used to determine the location of cells using standard nuclei detection modules. Segmentation artifacts were removed by threshold-based filters for area, roundness and intensity. The outline of the cells was determined analogously from the sum of the normalized, smoothed DAPI and Actin channel, starting from each nucleus. The Alexa-Fluor 488 (GSPT1) signal intensity in each cell was finally measured, in order to obtain a Mean intensity per cell. GSPT1 degradation (DC50) was calculated after normalization to controls and data import in CDD vault Database, using non-linear regression.
(§1) In Table 2, each compound is assigned a class (HTRF class) indicating the ability for Cereblon binding by means of their HTRF IC50 values according to […]: A, B, C or D. According to the code, A represents an IC50 value of ≤100 nM, B represents an IC50 value>100 nM and ≤1000 nM, C represents an IC50 value>1000 nM. IF Class assigns each compound a code indicating the ability for GSPT1 degradation: A, B or C. According to the code, A represents a DC50 value of ≤30 nM, B represents a DC50 value>30 nM and ≤300 nM and C represents a DC50 value of >300 nM.

For a further experiment, the target named is CRBN-DDB1 (Homo sapiens, UniProt Q96SW2). Briefly: Compound binding to CRBN by HTRF assay. The following applies: CRBN-DDB1 2.5 nM, Cy5-Thalidomide 100 nM, 30 min at ambient temperature; read-out: HTRF Class (Cereblon binding, HTRF IC50). On the procedure:
Example 146: Compound Binding to CRBN by HTRF Assay
Compound activity was monitored in a Homogenous Time-Resolved Fluorescence (HTRF) assay using 1-[5-({2-[2-(2-{[2-(2,6-dioxopiperidin-3-yl)-1,3-dioxo-2,3-dihydro-1H-isoindol-4-yl]oxy}acetamido)ethoxy]ethyl}carbamoyl)pentyl]-3,3-dimethyl-2-[(1E,3E)-5-[(2E)-1,3,3-trimethyl-5-sulfo-2,3-dihydro-1H-indol-2-ylidene]penta-1,3-dien-1-yl]-3H-indol-1-ium-5-sulfonate as a fluorescent probe. Biochemical assays were conducted in Greiner white 384 well HiBase plates (Cat. No 784075-25) in 10 μL total volume. A one pot detection solution of CRBN-DDB1 (2.5 nM), Anti-His Terbium Cryptate Gold (1X, PerkinElmer Cat. #: 61HI2TLB), and Cy5-Thalidomide (100 nM, Tenova Cat.: T52461) was prepared in 20 mM HEPES, 20 mM NaCl, 0.2 mM TCEP, 0.2 mM EDTA, and 0.005% Tween20 was dispensed to each assay plate. Compounds were stored in dry, ambient temperatures at 10 mM. A 10-point, 1:3 dilution series was prepared from 10 mM stock concentrations in Echo-compatible LDV plates. 10 nL of each compound dilution series was dispensed into assays wells using an Echo 650 (Labcyte inc. USA). 10 nL of 10 mM Lenalidomide was transferred into the active-control wells for the assay and 10 nL of DMSO was transferred into the neutral-control wells. The assay was then allowed to incubate for 30 min at ambient temperature after transferring compound. Plate measurements were taken on a Pherastar FSX (BMG Labtech, Germany) using the HTRF Red filter (Ex. 337 nm, em1: 620 nm, em2: 665 nm) (Flashes: 50, Integration time: 60-400 us, Z-height: 10 mm, Ratio-multiplier: 10,000). The HTRF signal was then subsequently normalized to the neutral and active controls. Analysis and IC50 values were derived using KNIME analytics (KNIME Zurich) transformation and fitting within Collaborative Drug Discovery (Collaborative Drug Discovery USA). Ki was derived from the geometric mean of the IC50 values using the Cheng-Prustoff transformation.
as §1

CRBN-DDB1, sequence (Q96SW2 whole entry): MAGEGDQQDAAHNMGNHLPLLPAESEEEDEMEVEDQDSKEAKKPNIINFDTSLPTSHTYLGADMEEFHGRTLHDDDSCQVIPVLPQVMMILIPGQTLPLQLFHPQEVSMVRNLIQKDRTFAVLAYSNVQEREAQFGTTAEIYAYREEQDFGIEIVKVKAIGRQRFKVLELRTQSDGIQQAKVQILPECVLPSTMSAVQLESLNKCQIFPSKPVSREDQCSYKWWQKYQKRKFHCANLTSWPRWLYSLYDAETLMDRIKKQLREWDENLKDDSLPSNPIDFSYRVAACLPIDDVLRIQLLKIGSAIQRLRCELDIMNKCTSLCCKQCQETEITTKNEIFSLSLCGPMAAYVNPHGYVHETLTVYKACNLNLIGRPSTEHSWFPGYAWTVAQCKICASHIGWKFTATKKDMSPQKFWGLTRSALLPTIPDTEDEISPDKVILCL
CRBN-DDB1, sequence (Q16531 whole entry partner): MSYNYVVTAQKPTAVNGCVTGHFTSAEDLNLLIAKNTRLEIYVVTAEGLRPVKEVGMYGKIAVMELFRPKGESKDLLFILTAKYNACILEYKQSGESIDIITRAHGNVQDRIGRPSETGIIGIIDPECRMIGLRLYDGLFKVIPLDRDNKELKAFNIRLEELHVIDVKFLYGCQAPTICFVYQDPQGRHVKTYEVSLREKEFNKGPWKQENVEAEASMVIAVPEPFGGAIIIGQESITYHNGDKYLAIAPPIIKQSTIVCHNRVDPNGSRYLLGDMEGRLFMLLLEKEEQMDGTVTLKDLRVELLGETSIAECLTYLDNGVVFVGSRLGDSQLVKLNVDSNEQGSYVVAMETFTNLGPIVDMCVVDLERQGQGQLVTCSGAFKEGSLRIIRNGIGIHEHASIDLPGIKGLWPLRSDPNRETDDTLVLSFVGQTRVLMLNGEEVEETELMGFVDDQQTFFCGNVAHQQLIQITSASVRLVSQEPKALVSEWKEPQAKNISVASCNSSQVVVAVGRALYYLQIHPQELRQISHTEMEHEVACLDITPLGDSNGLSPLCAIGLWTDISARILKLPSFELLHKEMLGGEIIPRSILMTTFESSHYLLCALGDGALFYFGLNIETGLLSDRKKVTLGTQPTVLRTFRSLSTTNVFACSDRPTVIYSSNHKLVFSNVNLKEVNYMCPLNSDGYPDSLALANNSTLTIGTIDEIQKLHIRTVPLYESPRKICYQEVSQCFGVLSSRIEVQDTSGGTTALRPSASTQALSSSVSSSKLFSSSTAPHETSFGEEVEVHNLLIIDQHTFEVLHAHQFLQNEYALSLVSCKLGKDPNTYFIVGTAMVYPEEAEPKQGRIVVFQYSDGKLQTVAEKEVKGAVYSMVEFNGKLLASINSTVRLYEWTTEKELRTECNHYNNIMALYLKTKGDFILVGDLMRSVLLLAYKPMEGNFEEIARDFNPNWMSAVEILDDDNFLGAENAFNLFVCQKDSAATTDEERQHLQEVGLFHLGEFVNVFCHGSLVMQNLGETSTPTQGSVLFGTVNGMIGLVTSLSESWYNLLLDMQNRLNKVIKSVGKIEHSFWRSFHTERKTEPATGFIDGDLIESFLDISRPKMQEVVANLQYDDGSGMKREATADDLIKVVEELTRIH
T1 sequence (P15170 whole entry): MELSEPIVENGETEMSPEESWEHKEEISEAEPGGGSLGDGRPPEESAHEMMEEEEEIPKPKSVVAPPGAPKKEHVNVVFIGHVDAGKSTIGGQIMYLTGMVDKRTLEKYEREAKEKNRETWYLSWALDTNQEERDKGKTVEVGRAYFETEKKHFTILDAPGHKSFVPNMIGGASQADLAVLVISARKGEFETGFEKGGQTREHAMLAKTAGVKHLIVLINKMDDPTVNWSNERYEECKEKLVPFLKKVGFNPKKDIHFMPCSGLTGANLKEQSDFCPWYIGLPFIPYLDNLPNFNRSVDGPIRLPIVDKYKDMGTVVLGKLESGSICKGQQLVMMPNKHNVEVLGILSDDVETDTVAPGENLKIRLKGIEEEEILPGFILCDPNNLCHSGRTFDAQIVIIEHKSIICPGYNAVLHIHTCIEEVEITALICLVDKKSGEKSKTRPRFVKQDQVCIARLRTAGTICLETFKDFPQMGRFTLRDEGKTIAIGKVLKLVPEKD
T1 sequence (Q96SW2 whole entry): as the sequence (Q96SW2 whole entry) above
T1 sequence (Q16531 2-1140 partner limits assumed): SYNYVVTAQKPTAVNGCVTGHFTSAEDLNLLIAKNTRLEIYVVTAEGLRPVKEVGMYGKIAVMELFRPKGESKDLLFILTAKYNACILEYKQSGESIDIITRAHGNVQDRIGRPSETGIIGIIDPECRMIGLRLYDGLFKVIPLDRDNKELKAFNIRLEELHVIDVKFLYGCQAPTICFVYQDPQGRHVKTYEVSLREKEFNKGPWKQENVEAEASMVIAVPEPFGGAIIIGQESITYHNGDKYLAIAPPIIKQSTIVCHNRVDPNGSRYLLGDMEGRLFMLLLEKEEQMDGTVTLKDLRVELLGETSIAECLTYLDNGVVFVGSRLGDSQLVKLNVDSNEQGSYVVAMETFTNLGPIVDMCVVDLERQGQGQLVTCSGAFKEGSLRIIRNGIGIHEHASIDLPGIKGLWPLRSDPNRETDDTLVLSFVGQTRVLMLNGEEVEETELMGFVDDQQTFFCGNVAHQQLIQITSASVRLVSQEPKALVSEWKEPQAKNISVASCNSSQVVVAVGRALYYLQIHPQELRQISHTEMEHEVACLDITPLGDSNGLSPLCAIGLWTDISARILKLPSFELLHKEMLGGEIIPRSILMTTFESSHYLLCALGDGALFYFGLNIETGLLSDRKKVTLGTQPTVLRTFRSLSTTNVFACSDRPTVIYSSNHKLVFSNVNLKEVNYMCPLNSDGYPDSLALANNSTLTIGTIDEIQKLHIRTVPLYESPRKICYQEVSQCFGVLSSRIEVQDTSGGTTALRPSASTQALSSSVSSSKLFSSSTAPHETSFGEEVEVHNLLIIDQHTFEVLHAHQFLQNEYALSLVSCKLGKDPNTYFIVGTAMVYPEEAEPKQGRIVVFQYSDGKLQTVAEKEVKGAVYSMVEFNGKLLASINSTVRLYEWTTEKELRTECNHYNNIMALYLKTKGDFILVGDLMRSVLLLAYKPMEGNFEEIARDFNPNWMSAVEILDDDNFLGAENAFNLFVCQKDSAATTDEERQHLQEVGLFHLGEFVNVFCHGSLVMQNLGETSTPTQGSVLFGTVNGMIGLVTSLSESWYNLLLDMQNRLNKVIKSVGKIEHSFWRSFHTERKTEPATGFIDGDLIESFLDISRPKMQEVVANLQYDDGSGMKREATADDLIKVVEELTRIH

Turning to `COc1cc(C2CCC(=O)NC2=O)c(Cl)cc1N1CC(OC(=O)Nc2ccc(C)c(Cl)c2)C1` (stereo not shown) [Compound 56, 1-(5-chloro-4-(2,6-dioxopiperidin-3-yl)-2-methoxyphenyl)azetidin-3-yl (3-chloro-4-methylphenyl)carbamate], on GSPT1, the DC50 was in the range of 30 to 300 nM. The pIC50 at CRBN-DDB1 is < 6.00.
On the same counts, the results for `Cc1cc(C)cc(NC(=O)NC2CN(c3cc(F)c(C4CCC(=O)NC4=O)c(F)c3)C2)c1` (stereo not shown) [Compound 11, 1-(3,5-dimethylphenyl)-3-(1-(4-(2,6-dioxopiperidin-3-yl)-3,5-difluorophenyl)azetidin-3-yl)urea] are ≤ 30 nM and 6.00 to 7.00.
Taken in the same sequence, the figures for `O=C1CCC(c2c(F)cc(N3CC(NC(=O)NC45CC(c6ccccc6)(C4)C5)C3)cc2F)C(=O)N1` (stereo not shown) [Compound 73, 1-(1-(4-(2,6-dioxopiperidin-3-yl)-3,5-difluorophenyl)azetidin-3-yl)-3-(3-phenylbicyclo[1.1.1]pentan-1-yl)urea] were ≤ 30 nM and 6.00 to 7.00.
Taken in the same sequence, the figures for `O=C1CCC(c2c(F)cc(N3CC(OC(=O)Nc4cc(Cl)cc(OC(F)F)c4)C3)cc2F)C(=O)N1` (stereo not shown) [Compound 38, 1-(4-(2,6-dioxopiperidin-3-yl)-3,5-difluorophenyl)azetidin-3-yl(3-chloro-5-(difluoromethoxy)phenyl) carbamate] were 30 to 300 nM and 6.00 to 7.00.
As for `O=C1CCC(c2c(F)cc(N3CC(OC(=O)N[C@H]4C[C@H](c5ccccc5)C4)C3)cc2F)C(=O)N1` (stereo partly drawn) [Compound 128, 1-(4-(2,6-dioxopiperidin-3-yl)-3,5-difluorophenyl)azetidin-3-yl((1R,3R)-3 phenylcyclobutyl) carbamate], on GSPT1, the DC50 is ≤ 30 nM. Moreover, the pIC50 at CRBN-DDB1 is 6.00 to 7.00.
Regarding `Cc1ccc(NC(=O)OC2CN(c3ccc(C4CCC(=O)NC4=O)c(Cl)c3F)C2)cc1Cl` (stereo not shown) [Compound 54, 1-(3-chloro-4-(2,6-dioxopiperidin-3-yl)-2-fluorophenyl)azetidin-3-yl(3-chloro-4-methylphenyl)carbamate], on GSPT1, the DC50 was 30 to 300 nM. In addition, the pIC50 on CRBN-DDB1 was < 6.00.
On the same counts, the results for `O=C1CCC(c2c(F)cc(N3CC(NC(=O)Nc4cccc(OC(F)(F)F)c4)C3)cc2F)C(=O)N1` (stereo not shown) [Compound 18, 1-(1-(4-(2,6-dioxopiperidin-3-yl)-3,5-difluorophenyl)azetidin-3-yl)-3-(3-(trifluoromethoxy)phenyl)urea] are 30 to 300 nM and 6.00 to 7.00.
As to `O=C1CCC(c2c(F)cc(N3CC(OC(=O)NC4Cc5ccccc5C4)C3)cc2F)C(=O)N1` (stereo not shown) [Compound 136, 1-(4-(2,6-dioxopiperidin-3-yl)-3,5-difluorophenyl)azetidin-3-yl (2,3-dihydro-1H-inden-2-yl)carbamate], the half-maximal degradation concentration (DC50) at GSPT1 is ≤ 30 nM. Moreover, the pIC50 on CRBN-DDB1 is ≥ 7.00.
On the same counts, the results for `C[C@@H](NC(=O)OC1CN(c2cc(F)c(C3CCC(=O)NC3=O)c(F)c2)C1)C1CCCCC1` (stereo partly drawn) [Compound 129, 1-(4-(2,6-dioxopiperidin-3-yl)-3,5-difluorophenyl)azetidin-3-yl ((R)-1-cyclohexylethyl)carbamate] are 30 to 300 nM and ≥ 7.00.
As for `O=C1CCC(c2c(F)cc(N3CC(OC(=O)Nc4cccc(OC(F)F)c4)C3)cc2F)C(=O)N1` (stereo not shown) [Compound 14, 1-(4-(2,6-dioxopiperidin-3-yl)-3,5-difluorophenyl)azetidin-3-yl (3-(difluoromethoxy)phenyl)carbamate], on GSPT1, the DC50 was ≤ 30 nM. Besides, the pIC50 at CRBN-DDB1 was 6.00 to 7.00.
Taken in the same sequence, the figures for `O=C1CCC(c2c(F)cc(N3CC(OC(=O)NCC4CCCC4)C3)cc2F)C(=O)N1` (stereo not shown) [Compound 139, 1-(4-(2,6-dioxopiperidin-3-yl)-3,5-difluorophenyl)azetidin-3-yl (cyclopentylmethyl)carbamate] were ≤ 30 nM and ≥ 7.00.
Regarding `O=C1CCC(c2c(F)cc(N3CC(NC(=O)Nc4cc(F)cc(Cl)c4)C3)cc2F)C(=O)N1` (stereo not shown) [Compound 16, 1-(3-chloro-5-fluorophenyl)-3-(1-(4-(2,6-dioxopiperidin-3-yl)-3,5-difluorophenyl)azetidin-3-yl)urea], the 50% degradation concentration (DC50) on GSPT1 was in the range of 30 to 300 nM. The negative logarithm of the IC50 (pIC50) on CRBN-DDB1 was 6.00 to 7.00.
On the same counts, the results for `O=C1CCC(c2c(F)cc(N3CC(NC(=O)Nc4ccc(F)c(OC(F)F)c4)C3)cc2F)C(=O)N1` (stereo not shown) [Compound 19, 1-(3-(difluoromethoxy)-4-fluorophenyl)-3-(1-(4-(2,6-dioxopiperidin-3-yl)-3,5-difluorophenyl)azetidin-3-yl)urea] are ≤ 30 nM and 6.00 to 7.00.
Regarding `Cc1c(Cl)cc(NC(=O)OC2CN(c3cc(F)c(C4CCC(=O)NC4=O)c(F)c3)C2)cc1CN1CCOCC1` (stereo not shown) [Compound 5, 1-(4-(2,6-dioxopiperidin-3-yl)-3,5-difluorophenyl) azetidin-3-yl(3-chloro-4-methyl-5-(morpholinomethyl)phenyl)carbamate], at GSPT1, the DC50 lay within 30 to 300 nM. The pIC50 at CRBN-DDB1 is ≥ 7.00.
On the same counts, the results for `Cc1c(Cl)cc(NC(=O)OC2CN(c3cc(F)c(C4CCC(=O)NC4=O)c(F)c3)C2)cc1C#N` (stereo not shown) [Compound 53, 1-(4-(2,6-dioxopiperidin-3-yl)-3,5-difluorophenyl)azetidin-3-yl(3-chloro-5-cyano-4-methylphenyl) carbamate] are 30 to 300 nM and 6.00 to 7.00.
As to `CC1(c2ccc(NC(=O)NC3CN(c4cc(F)c(C5CCC(=O)NC5=O)c(F)c4)C3)cn2)CC1` (stereo not shown) [Compound 40, 1-(1-(4-(2,6-dioxopiperidin-3-yl)-3,5-difluorophenyl)azetidin-3-yl)-3-(6-(1-methylcyclopropyl)pyridin-3-yl)urea], the DC50 on GSPT1 was ≤ 30 nM. Further, the pIC50 on CRBN-DDB1 is 6.00 to 7.00.
Take `O=C1CCC(c2c(F)cc(N3CC(OC(=O)Nc4ccc(-c5ccccn5)cc4)C3)cc2F)C(=O)N1` (stereo not shown) [Compound 45, 1-(4-(2,6-dioxopiperidin-3-yl)-3,5-difluorophenyl)azetidin-3-yl (4-(pyridin-2-yl)phenyl)carbamate]: the 50% degradation concentration (DC50) at GSPT1 is ≤ 30 nM. In addition, the pIC50 on CRBN-DDB1 is 6.00 to 7.00.
